Measured values reported in paper PMC10799709, “Characterization of a New Immunosuppressive and Antimicrobial Peptide, DRS-DA2, Isolated from the Mexican Frog, Pachymedusa dacnicolor” (International Journal of Inflammation, 2024).
Peptide text beside a SMILES is read from it.

Tests used:
Mouse erythrocytes = test: Hemolytic test, mouse erythrocytes; type: cell-based; details: mouse erythrocytes in PBS, 1 h, absorbance 550 nm; no death at 10 µM; 3 independent experiments in triplicate
Experimental: (§1) Blood from a mouse or healthy adult donor was centrifuged at 800 × g for 10 minutes at 4°C. The pellet containing red blood cells was then washed three times in 10 volumes of PBS and was diluted in 4% (v/v) in PBS. Blood and peptides at different concentrations were then incubated at 37°C for one hour. Cells were centrifuged 1500 × g for 5 minutes at room temperature. Hemolysis was measured in the supernatant at 550 nm. Red blood cells lysed with 1% Triton X-100 was used as a control, achieving 100% hemolysis. Percent hemolysis was calculated using the following formula: % hemolysis = 100% × [(A − A0)/(At − A0)], where A represents the absorbance of the peptide sample at 550 nm and A0 and At represent 0% and 100% hemolysis determined in 10 mM PBS and 0.1% Triton X-100, respectively.

A549 cells = test: A549 viability, CCK8 assay; type: cell-based, human; details: A549, 1 h, 37°C, duplicate, no death at 10 µM
Source text: (§2) Human leukocytes were provided by the « Banco de Sangre del Hospital Regional del IMSS » and the Centro Estatal de la Transfusión Sanguínea in Cuernavaca, Morelos, Mexico. Institutional committees approved the acquisition and isolation of human peripheral blood leukocytes. Human leukocytes and erythrocytes were obtained as previously described. Mouse bone marrow cells (MBMCs) and erythrocytes were obtained from C57BL/6 or Balb/c mice. Mouse epithelial cells were isolated from C57Bl/6 mice, and human epithelial cells were recovered from surgery residues. In brief, intestinal tissues were minced and digested in 450-U/mL collagenase I, 125-U/mL collagenase XI, 60-U/mL hyaluronidase, and 60-U/mL DNAse for 1 hour before gradient density centrifugation on Histopaque-1083 (Sigma-Aldrich, St. Louis, MO). A549 cells (ATCC CCL-185), a human lung carcinoma cell line, were cultivated at 37°C in a humid atmosphere and 5% CO2, with DMEM advanced medium (Gibco®) supplemented with 5% of fetal bovine serum (FBS), 2 mM of glutamine, 100 U of penicillin, and 50 μg/mL of streptomycin (Gibco®). Jurkat E6-1 cells were cultured in an RPMI medium supplemented with 5% fetal bovine serum.
For the cell line A549, viability was assessed by the CCK8 assay (DoJindo) as indicated by the manufacturer. […] The absorbance at 450 nm was measured after 3 h incubation.

[1] = In vitro peptide stability in rat serum, RP-HPLC; type: in vitro ADME; details: 37°C, 300 µM peptide; for degradation of the peptide: RPMI with 25% (v/v) rat serum
Experimental: (§3) One mL of RPMI supplemented with 25% (v/v) rat serum was equilibrated at 37°C for 15 min before adding the peptide (final concentration of 300 µM). At different time points, 300 µL of the reaction solution was removed and completed to 600 µL with 96% ethanol. The sample was cooled at 4°C for 15 min and then spun to precipitate serum proteins. The supernatant was recovered and submitted to the viability assay as described in the cytotoxic assay section or analyzed by RP-HPLC on C18–300 100 × 4, 6 mm. A linear gradient from 100% buffer A (0.1% TFA in H20) to 60% of buffer B (0.1% TFA in ACN) was used over 10 min with a flow rate of 1 mL/min. The absorbance was detected at both 220 nm and 280 nm.

[2] = test system: Mouse primary epithelial cells; test: Cytotoxic assay on mouse primary epithelial cells; type: cell-based; details: 2 h, 37°C, flow cytometry, no death at 10 µM
Source text: as §2, with “A549 cells (ATCC CCL-185), a human lung carcinoma cell line, were cultivated at 37°C in a humid atmosphere and 5% CO2, with DMEM advanced medium (Gibco®) supplemented with 5% of fetal bovine serum (FBS), 2 mM of glutamine, 100 U of penicillin, and 50 μg/mL of streptomycin (Gibco®). Jurkat E6-1 cells were cultured in an RPMI medium supplemented with 5% fetal bovine serum.” left out
(§4) 5.10^5 mouse or human leukocytes or primary epithelial cells, A549 or Jurkat E6-1 cells, were incubated in 100 µl RPMI or DMEM containing 0.5% BSA and […] with the peptides at different concentrations for 2 hours at 37°C, 5% CO2. […] Viability of leukocytes and Jurkat cells was determined by adding a viability dye (eFluor 780) and counted by FacsCanto flow cytometry with a predetermined number of beads (Polybead, Carboxylate Microspheres, Polysciences, Inc., Le Perray-en-Yvelines, France) added to the samples. […] Data were analyzed with FlowJo.

[3] = test system: Human primary epithelial cells; test: Cytotoxic assay on human primary epithelial cells; type: cell-based; details: 2 h, 37°C, flow cytometry, no death at 10 µM
Source text: as §2, with “A549 cells (ATCC CCL-185), a human lung carcinoma cell line, were cultivated at 37°C in a humid atmosphere and 5% CO2, with DMEM advanced medium (Gibco®) supplemented with 5% of fetal bovine serum (FBS), 2 mM of glutamine, 100 U of penicillin, and 50 μg/mL of streptomycin (Gibco®). Jurkat E6-1 cells were cultured in an RPMI medium supplemented with 5% fetal bovine serum.” left out
as §4

Human erythrocytes = test: Hemolytic test, human erythrocytes; type: cell-based; details: human erythrocytes in PBS, 1 h, 37°C, absorbance 550 nm; no death at 10 µM; 3 independent experiments in triplicate
Experimental: as §1

mouse bone marrow cells = test: Cytotoxic activity of peptide recovered after serum incubation; type: cell-based; details: then 5 µM on mouse bone marrow cells for 2 h
Experimental: 5.10^5 mouse or human leukocytes or primary epithelial cells, A549 or Jurkat E6-1 cells, were incubated in 100 µl RPMI or DMEM containing 0.5% BSA and […] with the peptides at different concentrations for 2 hours at 37°C, 5% CO2. Incubation of the cells with DMSO 30% was used as a positive control. For the kinetic assay, the cells were incubated with the peptides for different time periods. Viability of leukocytes and Jurkat cells was determined by adding a viability dye (eFluor 780) and counted by FacsCanto flow cytometry with a predetermined number of beads (Polybead, Carboxylate Microspheres, Polysciences, Inc., Le Perray-en-Yvelines, France) added to the samples. Mouse leukocytes were stained with anti-mouse Ly6G-PE, anti-mouse NK1.1-PE, anti-mouse CD11b-PerCP, and anti-mouse F4/80-APC (BD Biosciences, Rungis, France). Human leukocytes were stained with anti-human CD45-PB, anti-human CD16-PE-Cy7, anti-human CD56-PE-Cy7, anti-human CD14-FITC, anti-human CD3V500, anti-human CD8-APC, and anti-human CD4-PE. Data were analyzed with FlowJo.
as §3

Row | SMILES | toxicity for erythrocytes (hemolysis) (Mouse erythrocytes) | toxicity for A549 cells (A549 cells) | time of resistance to enzymatic degradation ([1]; rat serum, title of Figure 7) [min] | toxicity for primary epithelial cells [2] | toxicity for primary epithelial cells [3] | toxicity for erythrocytes (hemolysis) (Human erythrocytes) | Trp λmax in aqueous buffer [nm] | percentage of dead cells versus t0 peptide (mouse bone marrow cells; peptide (300 µM) pre-incubated with serum 15 min (t15), flow cytometry) | percentage of dead cells versus t0 peptide (mouse bone marrow cells; peptide pre-incubated with serum 30 min (t30)) | induction of cell death (mouse bone marrow cells; peptide pre-incubated with serum 24 h (t24)) | degradation of the peptide ([1]; 24 h, RP-HPLC, UV 220 nm) | degradation of the peptide ([1]; after 30 min, RP-HPLC C18, UV 220 nm, intact peak area vs sum of all peptide areas, n = 3 independent experiments) [%]
1 | CSCC[C@H](NC(=O)[C@H](CC(N)=O)NC(=O)[C@@H](NC(=O)[C@@H](NC(=O)[C@H](C)NC(=O)[C@H](CC(N)=O)NC(=O)[C@H](CC(C)C)NC(=O)[C@@H](NC(=O)[C@H](C)NC(=O)[C@H](CCCCN)NC(=O)CNC(=O)[C@H](C)NC(=O)[C@@H](NC(=O)[C@H](CCCCN)NC(=O)CNC(=O)[C@@H](NC(=O)[C@H](CCCCN)NC(=O)[C@H](CCCCN)NC(=O)[C@H](CC(C)C)NC(=O)[C@H](CC(C)C)NC(=O)[C@@H](NC(=O)[C@H](CCCCN)NC(=O)[C@H](Cc1c[nH]c2ccccc12)NC(=O)[C@H](CC(C)C)NC(=O)[C@H](C)N)[C@@H](C)O)C(C)C)C(C)C)C(C)C)C(C)C)[C@@H](C)O)C(=O)N[C@@H](C)C(=O)N[C@@H](CC(N)=O)C(=O)N[C@@H](CCC(N)=O)C(=O)N[C@@H](CC(N)=O)C(=O)N[C@@H](CCC(=O)O)C(=O)N[C@@H](CCC(N)=O)C(=O)O [DRS-DA2NEQ] (H-ALWKTLLKKVGKVAGKAVLNAVTNMANQNEQ-OH) | not toxic | not toxic | 15 | not toxic | not toxic | not toxic | 355 |  |  |  |  | 
2 | CSCC[C@H](NC(=O)[C@H](CC(N)=O)NC(=O)[C@@H](NC(=O)[C@@H](NC(=O)[C@H](C)NC(=O)[C@H](CC(N)=O)NC(=O)[C@H](CC(C)C)NC(=O)[C@@H](NC(=O)[C@H](C)NC(=O)[C@H](CCCCN)NC(=O)CNC(=O)[C@H](C)NC(=O)[C@@H](NC(=O)[C@H](CCCCN)NC(=O)CNC(=O)[C@@H](NC(=O)[C@H](CCCCN)NC(=O)[C@H](CCCCN)NC(=O)[C@H](CC(C)C)NC(=O)[C@H](CC(C)C)NC(=O)[C@@H](NC(=O)[C@H](CCCCN)NC(=O)[C@H](Cc1c[nH]c2ccccc12)NC(=O)[C@H](CC(C)C)NC(=O)[C@H](C)N)[C@@H](C)O)C(C)C)C(C)C)C(C)C)C(C)C)[C@@H](C)O)C(=O)N[C@@H](C)C(=O)N[C@@H](CC(N)=O)C(=O)N[C@@H](CCC(N)=O)C(=O)N[C@@H](CC(N)=O)C(=O)O [DRS-DA2N] (H-ALWKTLLKKVGKVAGKAVLNAVTNMANQN-OH) | not toxic | not toxic |  | not toxic | not toxic | not toxic | 355 | no significant differences | started to decrease | almost completely abolished | totally degraded | 40
